SMILES strings stand for the structures.

One experiment concerns the target T1, SIK1 (Homo sapiens, UniProt P57059).
T1 construct: purchased Carna Biosciences 02-131
Description: biochemical. The settings on record: 33P radioactive SIK kinase assay, AMARA peptide, 10 μM ATP; read-out: SIK1 IC50. The essentials:
(§1)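 Radiometric assay: SIK1, SIK2 or SIK3 phosphorylates AMARA peptide using unlabelled plus [^33P]-γ-ATP, reaction started by ATP addition. Stopped with 150 mM phosphoric acid, filter-harvested and washed; incorporated ^33P counted by scintillation. Controls: 1% DMSO and 10 μM staurosporine final.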

A further experiment deals with T2, SIK2 (Homo sapiens, UniProt Q9H0K1).
T2 construct: purchased ThermoFisher Scientific PV4792
T2 sequence (Q9H0K1 whole entry): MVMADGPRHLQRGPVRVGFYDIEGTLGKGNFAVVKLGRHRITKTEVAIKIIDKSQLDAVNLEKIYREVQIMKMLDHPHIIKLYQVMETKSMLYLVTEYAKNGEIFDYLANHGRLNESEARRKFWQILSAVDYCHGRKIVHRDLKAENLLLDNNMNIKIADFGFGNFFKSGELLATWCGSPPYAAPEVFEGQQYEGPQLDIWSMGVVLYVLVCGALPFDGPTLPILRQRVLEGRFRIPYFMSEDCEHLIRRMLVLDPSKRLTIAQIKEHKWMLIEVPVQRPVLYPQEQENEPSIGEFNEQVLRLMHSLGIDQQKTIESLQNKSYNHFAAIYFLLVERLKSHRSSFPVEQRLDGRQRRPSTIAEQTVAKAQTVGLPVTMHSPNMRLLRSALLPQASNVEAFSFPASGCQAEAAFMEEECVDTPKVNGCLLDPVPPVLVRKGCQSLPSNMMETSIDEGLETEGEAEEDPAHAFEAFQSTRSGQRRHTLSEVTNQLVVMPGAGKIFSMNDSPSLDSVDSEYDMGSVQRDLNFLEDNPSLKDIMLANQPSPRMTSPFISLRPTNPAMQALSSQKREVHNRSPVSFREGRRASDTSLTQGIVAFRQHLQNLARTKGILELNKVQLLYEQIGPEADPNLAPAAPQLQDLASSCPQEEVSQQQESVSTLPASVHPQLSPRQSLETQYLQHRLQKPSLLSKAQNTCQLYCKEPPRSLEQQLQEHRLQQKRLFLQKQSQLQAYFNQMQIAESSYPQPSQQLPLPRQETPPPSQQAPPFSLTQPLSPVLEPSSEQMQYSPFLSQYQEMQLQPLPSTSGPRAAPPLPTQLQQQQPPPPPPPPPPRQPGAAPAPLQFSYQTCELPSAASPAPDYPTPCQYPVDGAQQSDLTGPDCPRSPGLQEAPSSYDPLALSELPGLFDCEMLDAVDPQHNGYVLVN
Description: biochemical. The settings on record: 33P radioactive SIK kinase assay, AMARA peptide, 10 μM ATP. The essentials: as §1

Another experiment deals with T3, SIK3 (Homo sapiens, UniProt Q9Y2K2).
T3 construct: purchased SignalChem S12-11G-100
T3 sequence (Q9Y2K2 whole entry): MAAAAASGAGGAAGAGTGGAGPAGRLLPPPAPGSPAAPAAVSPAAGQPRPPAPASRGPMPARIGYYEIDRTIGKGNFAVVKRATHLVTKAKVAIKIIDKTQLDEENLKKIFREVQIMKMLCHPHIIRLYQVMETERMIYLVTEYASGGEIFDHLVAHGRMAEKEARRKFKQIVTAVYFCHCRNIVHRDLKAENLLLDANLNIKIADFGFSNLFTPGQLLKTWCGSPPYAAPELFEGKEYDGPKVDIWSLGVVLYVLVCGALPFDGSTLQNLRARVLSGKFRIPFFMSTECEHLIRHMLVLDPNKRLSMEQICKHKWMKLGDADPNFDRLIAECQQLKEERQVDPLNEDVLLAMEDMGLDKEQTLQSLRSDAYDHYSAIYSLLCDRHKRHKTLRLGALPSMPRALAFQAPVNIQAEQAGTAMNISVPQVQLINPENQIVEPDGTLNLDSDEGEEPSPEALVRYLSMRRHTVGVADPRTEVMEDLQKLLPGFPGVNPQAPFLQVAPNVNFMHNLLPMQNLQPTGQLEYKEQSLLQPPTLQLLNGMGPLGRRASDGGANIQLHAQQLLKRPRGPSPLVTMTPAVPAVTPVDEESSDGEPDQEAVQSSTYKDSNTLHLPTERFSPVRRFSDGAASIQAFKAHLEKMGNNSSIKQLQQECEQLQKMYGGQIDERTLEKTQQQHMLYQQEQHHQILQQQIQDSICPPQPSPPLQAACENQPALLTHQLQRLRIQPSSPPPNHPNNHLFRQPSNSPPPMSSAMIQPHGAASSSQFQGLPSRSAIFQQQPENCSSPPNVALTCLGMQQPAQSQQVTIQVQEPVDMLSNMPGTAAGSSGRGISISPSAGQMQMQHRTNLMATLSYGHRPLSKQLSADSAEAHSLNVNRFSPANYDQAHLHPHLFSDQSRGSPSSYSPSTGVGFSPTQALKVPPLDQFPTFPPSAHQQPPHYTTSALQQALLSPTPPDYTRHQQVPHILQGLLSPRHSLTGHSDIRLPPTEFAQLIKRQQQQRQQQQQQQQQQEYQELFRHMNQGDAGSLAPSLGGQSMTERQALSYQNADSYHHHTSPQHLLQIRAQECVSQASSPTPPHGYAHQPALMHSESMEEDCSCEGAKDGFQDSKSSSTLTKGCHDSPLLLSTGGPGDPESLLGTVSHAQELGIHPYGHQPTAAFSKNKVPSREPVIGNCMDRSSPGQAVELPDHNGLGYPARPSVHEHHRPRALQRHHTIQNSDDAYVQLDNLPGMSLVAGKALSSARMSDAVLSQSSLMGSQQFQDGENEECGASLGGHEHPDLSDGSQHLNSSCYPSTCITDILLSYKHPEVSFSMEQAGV
Description: biochemical. The essentials:
as §1

For experiment [1], the system named is LPS-induced TNFα secretion in monocyte-derived macrophages (MdM). Description: MdM assay: LPS-triggered TNFα (ELISA). Type of experiment: cell-based, human. The settings on record: Homo sapiens, Macrophage, LPS-triggered TNFα inhibition. As for the experimental part:
This assay evaluates illustrative compounds of the invention for their inhibition of LPS-induced TNFα and LPS triggered IL-10 secretion in monocyte-derived macrophages.
PBMCs are isolated from human blood samples (buffycoats). The buffy coat is aseptically transferred into a 50 mL Falcon tube, and diluted 1/2 in PBS. Falcon tubes are filled with 20 mL Lymphoprep™, on top of which 25 mL of the buffy coat is carefully added, tubes are centrifuged for 35 min at 400 g in temperature controlled centrifuge, without brake, at 25° C. PBMCs are aspirated from the white interface layer between sample and Lymphoprep™. PBMCs are washed five times in PBS.
PBMCs are centrifuged at 300×g for 10 min and resuspended at a density of 1.0E07 cells/80 μL Miltenyi buffer (PBS, pH 7.4, 1% FBS, 2 mM EDTA).
Starting from this point of the protocol all steps are performed on ice. 20 μL of CD14+ micro-beads are added per 1.0E07 cells, the tube is mixed and incubated for 15 min in the fridge at 4° C. Cell suspension volume is adjusted to total volume of 100 mL using Miltenyi buffer, mixed gently and subsequently centrifuged for 10 min at 300× g. Supernantant is discarded and cell pellet is resuspended in 12 mL of Miltenyi buffer.
Four LS columns are placed in the MACS Separator (magnet) from Miltenyi Biotec, and are prewet by rinsing with 3 mL of MACS buffer per column. Three mL of cell suspension is added onto the column (max 1*10^8 of labelled cells/column), and columns are subsequently washed 3 times with 3 mL of Miltenyi buffer.
The columns are removed from the magnets, and 5 mL of Miltenyi buffer are added to the column to flush out the CD14+ fraction by pushing the plunger into the column. The flushed fractions are collected in a fresh 50 mL Falcon and volume is adjusted to 30 mL using Miltenyi buffer, cells are centrifuged for 10 min at 300× g. The obtained cell pellet is resuspended in 10 mL RPMI w/o FBS, and cell density is determined using a hematologic analyser (Sysmex XS-500i).
On day 10, MdMs are triggered and compound is added.
A compound dilution plate is made in 100% DMSO by 3-fold dilution of 10 mM stock solution. An intermediate dilution plate (10× final concentration) is made by diluting the compound dilution plate 50-fold in RPMI medium.
Medium is carefully removed from cell plates using multichannel pipette, and replaced by 80 μL fresh medium. 10 μL of the 10× final concentration compound is added to the cells and incubated for 1 hour at 37° C. before addition of trigger. No trigger conditions/trigger conditions are spiked with equal final DMSO concentrations of 0.2% DMSO. 10 μL of 10×LPS (final conc. 200 ng/mL) solution are added to all wells except for the ‘no trigger wells’ where 10 μL medium is added. Supernatant is collected after 2 h (IL-10 determination) and after 20 h (TNFα determination) of LPS triggering.
The plate is then washed once with PBST (PBS+0.05% Tween20) and once with PBS followed by the addition of 100 μL of blocking buffer (1% Bovine Serum Albumin (BSA)-5% Sucrose) and plates are sealed and incubated for at least 4 h at RT. After washing the plate once with PBST and once with PBS, 40 μL of standard or sample are added (TNFα standard curve is prepared using a 1/2 serial dilution starting from 16000 pg/mL; dilutions are made in dilution buffer (PBS+1% BSA)). Plates are washed twice with PBST, and once with PBS, after which 35 μL of the detection antibody is added (final concentration 0.25 μg/mL diluted in dilution buffer) and plates are incubated for at least 2 h at RT. Plates are washed twice with PBST, and once with PBS, where after 35 μL of Strep-HRP conjugate (0.5 μg/mL final concentration diluted in dilution buffer) is added. Plates are incubated in the dark, at RT for at least 45 min but no longer than 1 hour. Plates are washed twice with PBST, and once with PBS.

T1 sequence (P57059 whole entry): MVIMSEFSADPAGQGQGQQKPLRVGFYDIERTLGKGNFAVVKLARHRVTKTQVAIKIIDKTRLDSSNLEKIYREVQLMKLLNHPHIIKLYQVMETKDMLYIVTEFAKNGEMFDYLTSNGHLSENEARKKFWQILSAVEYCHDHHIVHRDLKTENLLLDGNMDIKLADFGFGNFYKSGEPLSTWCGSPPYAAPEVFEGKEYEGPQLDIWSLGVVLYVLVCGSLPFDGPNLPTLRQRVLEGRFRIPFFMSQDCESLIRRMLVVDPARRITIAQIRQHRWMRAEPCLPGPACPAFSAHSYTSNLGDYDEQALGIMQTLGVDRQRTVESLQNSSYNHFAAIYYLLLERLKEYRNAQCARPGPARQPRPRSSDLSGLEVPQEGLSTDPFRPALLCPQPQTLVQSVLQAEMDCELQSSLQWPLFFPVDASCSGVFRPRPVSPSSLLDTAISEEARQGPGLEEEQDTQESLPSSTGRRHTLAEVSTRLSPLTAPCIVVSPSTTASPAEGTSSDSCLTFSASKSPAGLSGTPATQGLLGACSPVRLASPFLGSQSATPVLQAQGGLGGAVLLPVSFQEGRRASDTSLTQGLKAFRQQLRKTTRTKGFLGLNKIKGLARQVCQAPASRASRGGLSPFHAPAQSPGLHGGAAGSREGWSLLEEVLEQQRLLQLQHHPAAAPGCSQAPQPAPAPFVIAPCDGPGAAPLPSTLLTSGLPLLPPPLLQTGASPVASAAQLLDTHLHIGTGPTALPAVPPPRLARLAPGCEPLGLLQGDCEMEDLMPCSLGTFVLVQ

With `COc1cc(-c2cnc3cc(-c4cnn(CC(=O)OC5CCOC5)c4)ccn23)cc(OC)c1C(=O)NCC(F)(F)F` (stereo not shown) [Cpd 237, tetrahydrofuran-3-yl 2-[4-[3-[3,5-dimethoxy-4-(2,2,2-trifluoroethyl-carbamoyl)phenyl]imidazo[1,2-a]pyridin-7-yl]pyrazol-1-yl]acetate], the IC50 on SIK1, at SIK2 and against SIK3 was 0.01 to 10 nM throughout. Also, the EC50 in experiment [1] lay in the range of 100 to 1000 nM.
With `COc1cc(-c2cnc3cc(-c4cnn(C)c4)ccn23)cc(OC)c1C(=O)NCC(C)C` [compound 129, N-isobutyl-2,6-dimethoxy-4-[7-(1-methylpvrazol-4-yl)imidazo[1,2-a]pyridin-3-yl]benzamide], the results for the IC50 at SIK1, at SIK2 and against SIK3 were 10 to 100 nM, 0.01 to 10 nM and 0.01 to 10 nM, respectively. In experiment [1], this compound displayed an EC50 of 100 to 1000 nM.
Regarding `COc1cc(-c2cnc3cc(-c4cc(C)no4)ccn23)cc(OC)c1C(=O)NCC(F)(F)F` [compound 232, 2,6-dimethoxy-4-[7-(3-methylisoxazol-5-yl)imidazo[1,2-a]pyridin-3-yl]-N-(2,2,2-trifluoroethyl)benzamide], the IC50 on SIK1 fell in the range of 10 to 100 nM; on SIK2 it was 0.01 to 10 nM; on SIK3, 0.01 to 10 nM. In addition, the EC50 in experiment [1] was in the range of 0.1 to 100 nM.
Consider `CCOc1cncc(-c2ccn3c(-c4cc(OC)c(C(=O)NCC(F)(F)F)c(OC)c4)cnc3c2)c1` [compound 248, 4-[7-(5-ethoxy-3-pyridyl)imidazo[1,2-a]pyridin-3-yl]-2,6-dimethoxy-N-(2,2,2-trifluoroethyl)benzamide], for which the values for the IC50 on SIK1, at SIK2 and on SIK3 were 10 to 100 nM, 0.01 to 10 nM and 0.01 to 10 nM, respectively. In experiment [1], this compound displayed an EC50 of 0.1 to 100 nM.
With `CCn1cc(-c2cnc3c(-c4cc(OC)c(C(=O)NCC(F)F)c(OC)c4)cnn3c2)cn1` [compound 21, N-(2,2-difluoroethyl)-4-[6-(1-ethylpyrazol-4-yl)pyrazolo[1,5-a]pyrimidin-3-yl]-2,6-dimethoxy-benzamide], the IC50 on SIK1 is 10 to 100 nM; on SIK2, 0.01 to 10 nM; on SIK3 it was 0.01 to 10 nM. Besides, the EC50 in experiment [1] lay in the range of 100 to 1000 nM.
Regarding `COc1cc(-n2cnc3cc(-c4cnn(CC#N)c4)ccc32)cc(OC(F)F)c1C(=O)NC1CC1` [Cpd 55, 4-[5-[1-(cyanomethyl)pyrazol-4-yl]benzimidazol-1-yl]-N-cyclopropyl-2-(difluoromethoxy)-6-methoxy-benzamide], the half-maximal inhibitory concentration (IC50) at SIK1, on SIK2 and against SIK3 was 0.01 to 10 nM throughout. Besides, the EC50 in experiment [1] lay within 0.1 to 100 nM.
As to `COc1cc(-c2cnc3cc(-c4cnn(CC(=O)OC(C)C)c4)ccn23)cc(OC)c1C(=O)NCC(F)(F)F` [Cpd 231, isopropyl 2-[4-[3-[3,5-dimethoxy-4-(2,2,2-trifluoroethyl-carbamoyl)phenyl]imidazo[1,2-a]pyridin-7-yl]pyrazol-1-yl]acetate], the IC50 at SIK1, on SIK2 and against SIK3 was 0.01 to 10 nM in each case. The same compound showed an EC50 in experiment [1] of 0.1 to 100 nM.
As to `COc1cc(-c2cnc3cc(-c4cnn(CCCC(=O)O)c4)ccn23)cc(OC)c1C(=O)NCC(F)(F)F` [Cpd 255, 4-[4-[3-[3,5-dimethoxy-4-(2,2,2-trifluoroethyl-carbamoyl)phenyl]imidazo[1,2-a]pyridin-7-yl]pyrazol-1-yl]butanoic acid], the IC50 at SIK1, on SIK2 and against SIK3 was 0.01 to 10 nM throughout. For the same compound, in experiment [1], the EC50 was 1000 to 5000 nM.
`COc1cc(-c2cnc3cc(-c4cnn(CC(=O)OC(C)(C)C)c4)ccn23)cc(OC)c1C(=O)NCC(F)(F)F` [Cpd 229, tert-butyl 2-[4-[3-[3,5-dimethoxy-4-(2,2,2-trifluoroethyl-carbamoyl)phenyl]imidazo[1,2-a]pyridin-7-yl]pyrazol-1-yl]acetate]: the IC50 on SIK1, at SIK2 and against SIK3 was 0.01 to 10 nM in each case. In experiment [1], this compound returned an EC50 of 100 to 1000 nM.
Turning to `COc1cc(-n2cnc3cc(-c4cnn(C)c4)ccc32)cc(OC)c1C(=O)NCCN` [compound 163, N-(2-aminoethyl)-2,6-dimethoxy-4-[5-(1-methylpyrazol-4-yl)benzimidazol-1-yl]benzamide], the 50% inhibitory concentration (IC50) at SIK1, at SIK2 and against SIK3 was 10 to 100 nM in each case. In experiment [1], the EC50 is above 5000 nM.
For the compound `COc1cc(-n2cnc3cc(-c4cnn(C)c4)ccc32)cc(OC)c1C(=O)N[C@H](C)C(F)(F)F` [compound 58, 2,6-dimethoxy-4-[5-(1-methylpyrazol-4-yl)benzimidazol-1-yl]-N-[(1R)-2,2,2-trifluoro-1-methyl-ethyl]benzamide], the IC50 on SIK1, on SIK2 and against SIK3 was 10 to 100 nM each time. The compound also had an EC50 in experiment [1] of 100 to 1000 nM.
`COc1cc(-c2cnc3cc(-c4cnn(C)c4)ccn23)cc(OC)c1C(=O)NC(C)C` [compound 171, N-isopropyl-2,6-dimethoxy-4-[7-(1-methylpyrazol-4-yl)imidazo[1,2-a]pyridin-3-yl]benzamide]: the IC50 on SIK1, at SIK2 and at SIK3 was 10 to 100 nM each time. Further, in experiment [1], the concentration giving a half-maximal response (EC50) was 0.1 to 100 nM.
On to `COc1cc(-n2cnc3cc(-c4cnn(C)c4)ccc32)cc(OC)c1C(=O)NC1CC(F)(F)C1` [compound 125, N-(3,3-difluorocyclobutyl)-2,6-dimethoxy-4-[5-(1-methylpyrazol-4-yl)benzimidazol-1-yl]benzamide], for which the IC50 at SIK1, on SIK2 and against SIK3 was 10 to 100 nM in each case. Further, the EC50 in experiment [1] was in the range of 100 to 1000 nM.
For the compound `CCn1cc(-c2ccc3c(c2)ncn3-c2cc(OC)c(C(=O)NCCC(F)(F)F)c(OC)c2)cn1` [compound 44, 4-[5-(1-ethylpyrazol-4-yl)benzimidazol-1-yl]-2,6-dimethoxy-N-(3,3,3-trifluoropropyl)benzamide], the IC50 at SIK1, at SIK2 and at SIK3 was 10 to 100 nM in each case. Further, the EC50 in experiment [1] is 100 to 1000 nM.
On to `COc1cc(-n2cnc3cc(-n4cnc(C)c4)ccc32)cc(OC)c1C(=O)NCC(F)(F)F` [Cpd 155, 2.6-dimethoxy-4-[5-(4-methylimidazol-1-yl)benzimidazol-1-yl]-N-(2,2,2-trifluoroethyl)benzamide], for which the values for the 50% inhibitory concentration (IC50) at SIK1, on SIK2 and against SIK3 were 100 to 500 nM, 10 to 100 nM and 10 to 100 nM, respectively. Further, the EC50 in experiment [1] is 1000 to 5000 nM.
As to `COc1cc(-c2cnc3cc(-c4cncnc4)ccn23)cc(OC)c1C(=O)NCC(F)(F)F` [compound 242, 2,6-dimethoxy-4-(7-pyrimidin-5-ylimidazo[1,2-a]pyridin-3-yl)-N-(2,2,2-trifluoroethyl)benzamide], the IC50 lay in the range of 100 to 500 nM at SIK1, 100 to 500 nM at SIK2 and 10 to 100 nM against SIK3. Moreover, the EC50 in experiment [1] fell in the range of 1000 to 5000 nM.

Values taken from patent US12065443B2, “Compounds and pharmaceutical compositions thereof for the treatment of diseases” (priority 2017, dated 2024).
